Source: EP4596574A1, “GLP-1/GCG/GIP TRIPLE-RECEPTOR AGONIST AND USE THEREOF” (Sunshine Lake Pharma Co., Ltd., priority 2022, dated 2024)
Marks after values point to notes of the source that are not given here.

Columns and labels:
GLP-1R = target: T1, GLP-1R (Homo sapiens, UniProt P43220); assay: In vitro cell activity, cAMP production in HEK293 cells expressing GLP-1R; type: cell-based
T1 construct: expressed in transfected cells; host or cells: HEK293 (HEK293-GLP-1R)
Outline: (§1)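 HEK293 transfectants, 4×10^5 cells/mL, 384-well. Detection: cAMP-d2 + anti-cAMP cryptate 1:1, RT 1 h dark or 4 °C o/n. Read 665/620 nm; 4-parameter nonlinear fit → EC50.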

GCGR = target: T2, GCGR (Homo sapiens, UniProt P47871); assay: In vitro cell activity, cAMP production in HEK293 cells expressing GCGR; type: cell-based
T2 construct: expressed in transfected cells; host or cells: HEK293 (HEK293-GCGR)
T2 sequence (P47871 26-477, species assumed): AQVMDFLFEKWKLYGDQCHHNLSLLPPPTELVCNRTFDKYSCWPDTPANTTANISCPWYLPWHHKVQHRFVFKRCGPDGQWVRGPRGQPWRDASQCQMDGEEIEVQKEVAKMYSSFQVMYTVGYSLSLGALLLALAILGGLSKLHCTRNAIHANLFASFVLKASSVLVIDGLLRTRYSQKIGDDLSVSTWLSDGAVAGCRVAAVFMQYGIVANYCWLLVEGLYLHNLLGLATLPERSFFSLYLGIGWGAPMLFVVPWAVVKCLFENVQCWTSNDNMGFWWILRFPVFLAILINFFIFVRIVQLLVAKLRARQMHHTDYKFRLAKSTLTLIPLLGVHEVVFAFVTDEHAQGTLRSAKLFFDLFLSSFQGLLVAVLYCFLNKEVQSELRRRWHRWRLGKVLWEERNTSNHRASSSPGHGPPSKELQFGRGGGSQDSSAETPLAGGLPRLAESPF
Outline: as §1

GIPR = target: T3, GIPR (Homo sapiens, UniProt P48546); assay: In vitro cell activity, cAMP production in HEK293 cells expressing GIPR; type: cell-based
T3 construct: expressed in transfected cells; host or cells: HEK293 (HEK293-GIPR)
T3 sequence (P48546 22-466): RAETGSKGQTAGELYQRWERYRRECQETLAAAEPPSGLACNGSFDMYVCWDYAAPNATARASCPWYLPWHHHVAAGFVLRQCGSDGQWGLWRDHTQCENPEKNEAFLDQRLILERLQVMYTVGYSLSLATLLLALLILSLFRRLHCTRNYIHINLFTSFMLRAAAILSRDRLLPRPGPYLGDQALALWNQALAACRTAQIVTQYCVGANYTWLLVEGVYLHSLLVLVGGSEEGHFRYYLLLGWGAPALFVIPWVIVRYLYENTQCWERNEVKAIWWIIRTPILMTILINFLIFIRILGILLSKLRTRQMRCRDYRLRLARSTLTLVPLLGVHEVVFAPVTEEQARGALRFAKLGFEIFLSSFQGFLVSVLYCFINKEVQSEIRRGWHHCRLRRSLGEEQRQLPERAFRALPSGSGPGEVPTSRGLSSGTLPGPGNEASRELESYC
Outline: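 HEK293 cells expressing human GIPR, thawed and diluted to 4×10^5 cells/mL, are stimulated with test compound. cAMP is measured by HTRF competition between cAMP-d2 and anti-cAMP cryptate. EC50 comes from a four-parameter nonlinear fit of signal ratio against concentration.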

[1] = Glucose tolerance assessment in normal C57BL/6 mice (Example 5); type: in vivo
Protocol: Twelve hours after the single administration, the animals were fasted for 12 hours and had free access to water. Blood was collected from the tail vein to determine the basal blood glucose level of each group of animals, and then 2 g/kg glucose solution was injected intraperitoneally. Blood glucose was tested at 15, 30, 60, and 90 min after glucose administration. The blood glucose concentration-time curve was drawn according to the blood glucose values measured at different time points, and the AUC0~90min of each dose group was calculated as shown in Table 5 and Figure 2. Table 5: Effects of single administration of HEC-PT86, HEC-PT96, HEC-PT112, HEC-PT113, HEC-PT114, and HEC-PT119 on glucose tolerance in normal C57 mice 24 h after administration

[2] = Long-term repeated administration in diet-induced obese C57BL/6 mice (DIO); type: in vivo, C57/BL6 mice
Description: Experimental methods: C57/BL6 mice were randomly divided into a normal group (NFD) and a model group (HFD) at the fifth week of age. The normal group was fed with ordinary maintenance feed, while the other groups were fed with high-fat feed D12492. The body weight and food intake of mice were monitored every 3 weeks. After 16 weeks of feeding, the body weights of mice in the model group and the normal group were (49.0±2.3) g and (31.0±2.0) g, respectively, and the difference between the two groups was statistically significant. […] Body weight and food intake were measured before each administration. After 3 weeks of administration, an intraperitoneal glucose tolerance test was performed. The mice were slaughtered and samples were collected 72 h after the last administration. The liver weight was recorded, and the liver pathological conditions and blood biochemical indexes of each group were tested.

[3] = 10 nmol/kg s.c. once every 3 days, D7
[4] = 10 nmol/kg s.c. once every 3 days, D10
[5] = 10 nmol/kg s.c. once every 3 days, D13
[6] = 10 nmol/kg s.c. once every 3 days, D16
[7] = 10 nmol/kg s.c. once every 3 days, D19
[8] = 10 nmol/kg s.c. once every 3 days, D22
[9] = 10 nmol/kg s.c. once every 3 days, D25
[10] = 10 nmol/kg s.c. once every 3 days, D28
[11] = after 4 weeks of administration, same dose
[12] = long-term administration 10 nmol/kg, 72 h after the last administration
[13] = long-term administration 10 nmol/kg, blood biochemical index

T1 sequence (P43220 24-463, species assumed): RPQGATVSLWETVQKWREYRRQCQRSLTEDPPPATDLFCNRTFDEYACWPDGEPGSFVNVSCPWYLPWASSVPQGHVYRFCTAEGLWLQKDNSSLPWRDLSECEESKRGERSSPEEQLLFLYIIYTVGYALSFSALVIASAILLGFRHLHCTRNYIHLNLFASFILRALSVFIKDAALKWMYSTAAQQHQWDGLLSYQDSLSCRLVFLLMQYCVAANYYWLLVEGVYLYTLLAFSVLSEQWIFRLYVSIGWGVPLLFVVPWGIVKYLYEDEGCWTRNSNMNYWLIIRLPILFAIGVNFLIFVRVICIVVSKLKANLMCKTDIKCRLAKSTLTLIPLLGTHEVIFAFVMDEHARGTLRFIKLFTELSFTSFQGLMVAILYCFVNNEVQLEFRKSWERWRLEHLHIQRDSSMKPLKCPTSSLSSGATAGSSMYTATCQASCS

CC[C@H](C)[C@H](NC(=O)[C@H](Cc1ccccc1)NC(=O)[C@H](C)NC(=O)C(C)(C)NC(=O)[C@H](CCC(N)=O)NC(=O)[C@H](CCCNC(=N)N)NC(=O)[C@H](CCCCNC(=O)COCCOCCNC(=O)CC[C@H](NC(=O)CCCCCCCCCCCCCCCCC(=O)O)C(=O)O)NC(=O)[C@H](CCC(=O)O)NC(=O)[C@H](CC(=O)O)NC(=O)[C@H](CC(C)C)NC(=O)[C@H](CC(C)C)NC(=O)[C@@H](NC(=O)[C@H](CO)NC(=O)[C@H](Cc1ccc(O)cc1)NC(=O)[C@H](CC(=O)O)NC(=O)[C@H](CO)NC(=O)[C@@H](NC(=O)[C@](C)(Cc1ccccc1F)NC(=O)[C@@H](NC(=O)CNC(=O)[C@H](CCC(N)=O)NC(=O)C(C)(C)NC(=O)[C@@H](N)Cc1ccc(O)cc1)[C@@H](C)O)[C@@H](C)O)[C@@H](C)CC)C(=O)N[C@@H](CCC(=O)O)C(=O)N[C@@H](Cc1ccc(O)cc1)C(=O)N[C@@H](CC(C)C)C(=O)N[C@@H](CC(C)C)C(=O)N[C@@H](C)C(=O)NCC(=O)NCC(=O)N1CCC[C@H]1C(=O)N[C@@H](CO)C(=O)N[C@@H](CO)C(=O)NCC(=O)N[C@@H](C)C(=O)N1CCC[C@H]1C(=O)N1CCC[C@H]1C(=O)N1CCC[C@H]1C(=O)N[C@@H](CO)C(N)=O [HEC-PT112]
EC50 (GLP-1R): 183 pM
EC50 (GCGR): 871 pM
EC50 (GIPR): 53.4 pM
Blood glucose level (mM) 15 min ([1]; 3 nmol/kg s.c. single dose, 24 h after administration, 15 min after 2 g/kg glucose i.p.): 11.7 ± 2.6 mM
Blood glucose level (mM) 30 min ([1]; 3 nmol/kg s.c. single dose, 24 h after administration, 30 min after 2 g/kg glucose i.p.): 8.6 ± 1.9 mM
Blood glucose level (mM) 60 min ([1]; 3 nmol/kg s.c. single dose, 24 h after administration, 60 min after 2 g/kg glucose i.p.): 7.3 ± 0.7 mM
Blood glucose level (mM) 90 min ([1]; 3 nmol/kg s.c. single dose, 24 h after administration, 90 min after 2 g/kg glucose i.p.): 6.7 ± 0.6 mM
Blood glucose level (mM) 0 min ([1]; 3 nmol/kg s.c. single dose, 24 h after administration, basal before 2 g/kg glucose i.p.): 4.9 ± 1.3 mM
improvement of glucose tolerance compared with LY3298176 ([1]; 24 hours after a single administration, 3 nmol/kg): improved glucose tolerance in mice better than the positive control LY3298176
AUC0-90 min ([1]; blood glucose AUC, 3 nmol/kg s.c. single dose, 24 h after administration, 2 g/kg glucose i.p.): 726.2±82.4^a
Cumulative food intake (g/pcs) D7 [2, 3]: 5.6 g/pcs
Weight gain rate (%) D7 [2, 3]: -21.3±4.0%
Cumulative food intake (g/pcs) D10 [2, 4]: 7.8 g/pcs
Weight gain rate (%) D10 [2, 4]: -28.6±7.0%
Cumulative food intake (g/each) D13 [2, 5]: 10.6 g/each
Weight gain rate (%) D13 [2, 5]: -32.4±7.7%
Cumulative food intake (g/each) D16 [2, 6]: 15.5 g/each
Weight gain rate (%) D16 [2, 6]: -34.0±7.1%
Cumulative food intake (g/each) D19 [2, 7]: 21.0 g/each
Weight gain rate (%) D19 [2, 7]: -34.5±5.7%
Cumulative food intake (g/each) D22 [2, 8]: 26.6 g/each
Weight gain rate (%) D22 [2, 8]: -35.6±5.6%
Cumulative food intake (g/each) D25 [2, 9]: 32.3 g/each
Weight gain rate (%) D25 [2, 9]: -36.4±5.1%
Cumulative food intake (g/each) D28 [2, 10]: 39.1 g/each
Weight gain rate (%) D28 [2, 10]: -36.2±4.3%
Cumulative food intake (g/each) D30 ([2]; 10 nmol/kg s.c. once every 3 days, D30): 43.0^a g/each
Weight gain rate (%) D31 ([2]; 10 nmol/kg s.c. once every 3 days, D31): -35.6±4.3^a %
Cumulative food intake (g/pcs) D0 ([2]; 10 nmol/kg s.c., D0): 2.3 g/pcs
Weight gain rate (%) D0 ([2]; 10 nmol/kg s.c., D0): 0.0±0.0%
Cumulative food intake (g/pcs) D1 ([2]; 10 nmol/kg s.c., D1): 2.5 g/pcs
Weight gain rate (%) D1 ([2]; 10 nmol/kg s.c., D1): -5.4±0.9%
Cumulative food intake (g/pcs) D2 ([2]; 10 nmol/kg s.c., D2): 2.9 g/pcs
Weight gain rate (%) D2 ([2]; 10 nmol/kg s.c., D2): -8.8±0.8%
Cumulative food intake (g/pcs) D3 ([2]; 10 nmol/kg s.c., D3): 3.5 g/pcs
Weight gain rate (%) D3 ([2]; 10 nmol/kg s.c., D3): -10.6±1.0%
Cumulative food intake (g/pcs) D4 ([2]; 10 nmol/kg s.c., D4): 4.1 g/pcs
Weight gain rate (%) D4 ([2]; 10 nmol/kg s.c., D4): -12.6±1.7%
liver function and blood lipids of DIO mice ([2]; after 4 weeks of administration): significantly improved the liver function and blood lipids
food intake inhibition effect compared with LY3298176 [2, 11]: certain advantages in inhibiting food intake
weight loss effect compared with LY3298176 [2, 11]: significantly better than that of LY3298176
Liver index/% [2, 12]: 3.0±0.0^a %
Liver/g [2, 12]: 0.9±0.1^a g
Weight/g [2, 12]: 29.7±2.5^a g
ALT (U/L) [2, 13]: 25.9±6.6^a U/L
AST (U/L) [2, 13]: 115.3±16.2^a U/L
CHOL (mmol/L) [2, 13]: 3.1±0.5^a mmol/L
TRIGL (mmol/L) [2, 13]: 0.6±0.1^a mmol/L
